Molecules are shown by their SMILES. Read-outs that look alike come from different tables or passages of the source.

In general, IC50 refers to the concentration that gives 50% inhibition.

The target of this test is T1, recombinant ATX (mouse ATX-β) (Mus musculus, UniProt Q9R1E6).
T1 construct: purchased Sino Biological
Nature of the test: Inhibition of ATX, Amplex Red PLD assay kit. The test is classed as biochemical. The following applies: 2 nM recombinant ATX, mean of two independent experiments. The method, then: The in vitro activity of the synthetic inhibitors was studied using the Amplex™ Red PLD assay kit (Molecular Probes, Interchim, Montlucon, France). Inhibitors were dissolved in DMSO (stock solution 3 mM) and appropriate dilutions were made in DMSO. […] The IC50 values were determined using the mean values obtained from two independent experiments. The IC50 values were determined graphically using the sigmoid dose-response fitting method (PrismH software) by the equation f=y0+a/(1+exp(−(x−x0)/b)) given by SigmaPlot 11.0.

[1] abbreviates: thioamides/phosphonates/phosphinates, substrate 50 μM LPC 16:0, read-out: IC50 (μM) 16:0 LPC.
[2] abbreviates: thioamides/phosphonates/phosphinates, substrate 50 μM LPC 18:0, read-out: IC50 (μM) 18:0 LPC.
[3] abbreviates: hydroxamates, substrate 50 μM LPC 16:0, read-out: IC50 (μM) 16:0 LPC.
Setting [4] is: hydroxamates, substrate 50 μM LPC 18:0, read-out: IC50 (μM) 18:0 LPC.
[5] abbreviates: thioamides/phosphonates/phosphinates, substrate 50 μM LPC 18:1, read-out: IC50 (μM) 18:1 LPC.

On to `CCCCCCCCCCCCCC(=S)NCCCC[PH](=O)O` [GK325], for which the IC50 runs as follows: under setting [1], 0.5 µM; under setting [2], 1 µM.

As to `CCCCCCCCCCCCCC(=O)Nc1ccc(CC(=O)NO)cc1` [GK332], the IC50 under setting [3] was 1 µM and the IC50 under setting [4] was found to be 0.2 µM. The like results for `O=C(Cc1ccc(NC(=O)CCCCCCc2ccccc2)cc1)NO` [GK333] were, in that order, 0.7 µM and 2 µM. Turning to `CCCCCCCCCCCCCC(=S)NCCCC[PH](=O)O` [GK312], the half-maximal inhibitory concentration (IC50) reads like this: under setting [1], 3 µM; under setting [2], 0.7 µM. As for `O=C(Cc1ccc(NC(=O)CCCCNC(=O)c2ccccc2)cc1)NO` [GK340], the IC50 is, setting by setting: under setting [3], 1 µM; under setting [4], 0.2 µM. For the molecule `CCCC[C@@H](CCCC(=O)NO)NC(=O)CCCCC(=O)Nc1ccccc1` [GK442], the IC50 under setting [3] stood at 0.06 µM. With `CCCCCCCCCCCCCC(=S)NCCCCC(=S)NCC` [GK377], the IC50 under setting [1] came out at 0.198 µM and the IC50 under setting [5] was found to be 0.098 µM. For `CCCCOc1ccc(CCCCC(=O)Nc2ccc(CC(=O)NO)cc2)cc1` [GK341], the IC50 under setting [3] turned out to be 4 µM. As for `CCCCCCCCc1ccc(OCC(=O)Nc2ccc(CC(=O)NO)cc2)cc1` [GK344], the IC50 stood at 1 µM under setting [3] and 0.3 µM under setting [4]. `CCCCCCCCc1ccc(CCC(=O)Nc2ccc(CC(=O)NO)cc2)cc1` [GK345]: the half-inhibitory concentration (IC50) under setting [3] was 5 µM. As to `COC(=O)[C@@H](CCCC(=O)NO)NC(=O)CCCCC(=O)Nc1ccccc1` [GK400], the half-inhibitory concentration (IC50) under setting [3] was found to be 0.05 µM. As to `COc1ccc(C(=O)NCCCCC(=O)Nc2ccc(CC(=O)NO)cc2)cc1` [GK381], under setting [3], the 50% inhibitory concentration (IC50) amounted to 1 µM. Consider `CCCCCCCCCCCCCC(=S)NCCCCP(=O)(O)OCC` [GK378], for which the half-inhibitory concentration (IC50) was 0.12 µM under setting [1] and 0.05 µM under setting [5].

For the molecule `CCCCCCCCCCCCNC(=S)NCCCCC(=S)NCC` [GK446], the IC50 under setting [1] was 0.06 µM.

Turning to `CCCC[C@@H](CCCC(=O)NO)NC(=S)NCCCC(=O)Nc1ccccc1` [GK471], under setting [3], the IC50 was determined as 0.8 µM.

As to `Nc1ccccc1NC(=O)Cc1ccc(NC(=O)CCCCC(=O)Nc2ccccc2)cc1` [GK335], the IC50 under setting [3] is 0.6 µM. Still for that read-out and setting: the result for `O=C(Cc1ccc(NC(=O)CCCCCCC(=O)Nc2ccccc2)cc1)NO` [GK346] reads 2 µM.

Turning to `COC(=O)[C@@H](CCC(=O)NO)NC(=O)CCCCC(=O)Nc1ccccc1` [GK337], the concentration for half-maximal inhibition (IC50) by setting is: under setting [3], 0.4 µM; under setting [4], 5 µM. With `COC(=O)[C@@H](CCC(=O)NO)NC(=O)CCCCC(=O)Nc1ccc(OC)cc1` [GK382], under setting [3], the half-maximal inhibitory concentration (IC50) stood at 4 µM.

With `CCCCCCCCCCCCCC(=O)Nc1ccc(CC[PH](=O)O)cc1` [GK327], the IC50 under setting [1] was 0.4 µM and the half-inhibitory concentration (IC50) under setting [2] was 4 µM. Turning to `O=C(Cc1ccc(NC(=O)CCCCC(=O)Nc2ccccc2)cc1)NO` [GK285], the half-maximal inhibitory concentration (IC50) under setting [3] was found to be 1.2 µM.

The record behind these values is patent US20180141965A1, “AUTOTAXIN INHIBITORS AND USES THEREOF” (NATIONAL AND KAPODISTRIAN UNIVERSITY OF ATHENS, priority 2015, published 2018).
